Laboratory results taken from PubChem BioAssay AID179 (DTP/NCI, 2004).
Several values for one entry are separate records, joined by “and”; a condition that tells them apart may be missing. Equal values may be shown once. Activity calls are given as the source filed them.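 The calls were made as follows: active = compounds giving half or more protection of infected cells from virus-caused growth loss, again on retest; inactive = the rest.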 Where a SMILES comes first, the peptide text is derived from it.

Test system: CEM cells HIV-1 protection, formazan growth assay
Assay: NCI AIDS Antiviral Assay
Conditions: for IC50: measured here: growth of uninfected CEM cells
How it was run: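 Protection of CEM cells against HIV-1 was scored from cell growth (soluble formazan) across five concentrations, with parallel uninfected cells. Lack of protection may reflect toxicity.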

| SMILES | EC50 | IC50 | outcome |
| --- | --- | --- | --- |
| COc1cc(N)c2c(c1)SC(c1ccccc1)C(=O)N2 (stereo not drawn) | > 200 µM | 120 µM |  |
| CCOc1cc2ccc3c4cc(OC)c(OC)cc4cnc3c2cc1OCC | > 36.3 µM | > 36.3 µM |  |
| CCCC(=O)n1[nH]c(=O)n(C(C)(C)C)c1=O | > 200 µM | > 200 µM |  |
| O=C1CCC(N2C(=O)C3C4C=CC(CC4)C3C2=O)C(=O)N1 (stereo not drawn) | > 871 µM | > 871 µM |  |
| O=C1C2CCC(N1CCc1ccccc1)n1c(=O)n(-c3ccccc3)c(=O)n12 (stereo not drawn) | > 200 µM | > 200 µM |  |
| CCOC(=O)C1C(=O)c2cccc(OC)c2C2COC(=O)N12 (stereo not drawn) | > 251 µM | 229 µM |  |
| Clc1ccc(C2=NN(c3ccccc3)C3c4cc(Br)ccc4OCC23)cc1 (stereo not drawn) | > 11.7 µM | > 11.7 µM |  |
| CC(C)=CCNc1nc(Cl)nc2nc[nH]c12 | > 200 µM | 57.5 µM |  |
| CC(C)OP(=O)(OC(C)C)/C(F)=N/Nc1ccc([N+](=O)[O-])cc1 | > 38.9 µM | > 38.9 µM |  |
| CC[N+](C)(C)Cc1ccccc1Br | > 200 µM | 182 µM |  |
| Clc1ccccc1CN1COc2c(cc(Cl)c3cccnc23)C1 | > 87.1 µM | 4.57 µM |  |
| COc1nc(N=[N+]=[N-])nc(-c2c(OC)ccc3ccccc23)n1 | > 200 µM | 47.9 µM |  |
| CCCN(CCC)C(=O)COc1cc2c(O)c3c(O)c(C)c4c(c13)C(=O)C(C)(O/C=C/C(OC)C(C)C(OC(C)=O)C(C)C(O)C(C)C(O)C(C)/C=C/C=C(\C)C(=O)N2)O4 (stereo not drawn) |  |  | inactive |
| O=C1CCC2(c3ccc(Cl)cc3)Nc3cc(Cl)ccc3N12 (stereo not drawn) |  |  | inactive |
| CC(=S)N=Cc1c(N)[nH]n(-c2ccccc2)c1=O | > 200 µM | > 200 µM |  |
| NC(=O)N/N=C1\CCc2ccccc2C1 | > 93.3 µM | > 93.3 µM |  |
| CCOC(=O)C1=CNc2ccccc2N=C1N | > 200 µM | 34.7 µM |  |
| Cc1nn2c(=O)n(-c3cccc(-n4nnc5c(-c6ccccc6)c(C)nn5c4=O)c3C)nnc2c1-c1ccccc1 |  |  | inactive |
| CC(C)Cn1cnnc1NS(=O)(=O)c1cc(C(=O)NN)c(Cl)cc1S | > 200 µM | > 200 µM |  |
| CCCCCCCCCC1(N=[N+]=[N-])C(=O)c2ccccc2N(C)C1=O (stereo not drawn) | > 200 µM | 33.9 µM |  |
| CCN(CC)C(=S)N/N=C/c1cc([N+](=O)[O-])ccc1O | > 200 µM | 3.63 µM |  |

| SMILES | EC50 | IC50 | outcome |
| --- | --- | --- | --- |
| O=C1NC2C3CC(OCc4ccccc4)(OCc4ccccc4)C2OC3O1 (stereo not drawn) | > 97.7 µM | > 97.7 µM |  |
| C[C@H](CCCN1CCOCC1)[C@H]1CC[C@H]2[C@@H]3CC[C@@H]4C[C@H](O)CC[C@]4(C)[C@H]3CC[C@]12C | > 50.1 µM | 9.12 µM |  |
| Nc1ncc2c(ncn2CCO)n1 | > 282 µM | > 282 µM |  |
| CON(C)C(=O)[C@H]1C[C@@]1(C)CO | > 200 µM | > 200 µM |  |
| O=P1(c2ccccc2)CCCCC1 | 0.0631 µM | > 200 µM |  |
| CC(=O)Nc1ccc(NS(=O)(=O)c2ccc3nc(C)n(NS(=O)(=O)c4ccc(NC(C)=O)cc4)c(=O)c3c2)cc1 | > 200 µM | > 200 µM |  |
| CCOC(=O)C(NC(=O)c1cccc(Cl)c1)(N1CCN(c2cc3c(cc2F)c(=O)c(C(=O)O)cn3CC)CC1)C(F)(F)F (stereo not drawn) | > 200 µM | 0.339 µM |  |
| CC(C)CN1CC(=O)N2CCCN2C(=O)C1 | > 407 µM | > 407 µM |  |
| O=C1CCC2=C1C[C@@H]1CCCO[C@@H]1O2 |  |  | inactive |
| CCOC(=O)c1c(SC)nc(-c2ccc(Cl)cc2)sc1=N | > 200 µM | 12 µM |  |
| Cn1c(=O)cc(CC(=O)O)c2ccccc21 | > 200 µM | > 200 µM |  |
| COC1OC(COC(C)=O)C(OC(C)=O)C(OC(C)=O)C1NC(=O)N(CCCl)N=O (stereo not drawn) | > 288 µM | 91.2 µM and > 209 µM |  |
| NP(=O)(Nc1ccccc1)Nc1ccccc1 | > 200 µM | > 200 µM |  |
| C/C(=N/NC(=O)CC(=O)N(C(=O)c1ccccc1Cl)c1ccc(C)cc1)c1cc2ccccc2oc1=O | > 10 µM | > 10 µM |  |
| O=C(O)c1cccc(Nc2ccccc2C(=O)O)c1 | > 513 µM | > 513 µM |  |
| CC[N+](CC)=c1cc2oc3cc(N(C)C)ccc3nc-2cc1C | > 200 µM | 16.2 µM |  |
| Cc1cccc2[nH]c3c(c(O)cc4[nH]c5cccc(C)c5c(=O)c43)c(=O)c12 | > 200 µM | 20.9 µM |  |
| O=C(O)CCCCCCCCCCCC(=O)O | > 148 µM | > 148 µM |  |
| O=C1C(c2ccccc2)CS(=O)(=O)CC1c1ccccc1 (stereo not drawn) | > 120 µM | 36.3 µM |  |
| Oc1ccc(Br)cc1C=Nc1c(NC2CCCCC2)oc2ccc(Br)cc12 |  |  | inactive |
| Cn1ccnc1Cn1cc(-c2cccc(-c3cn[nH]c3)c2)cn1 |  |  | inactive |

| SMILES | EC50 | IC50 | outcome |
| --- | --- | --- | --- |
| O=C(O)CCC1CCc2cccc3oc(C(=O)O)c1c23 (stereo not drawn) |  |  | inactive |
| C=C1C2CCC3(CCC4C5(C)CCCC4(C=NC5)C3C2)C1O (stereo not drawn) |  |  | inactive |
| COc1ccc(/C=C2\N=C(N3CCOCC3)NC2=O)cc1 | > 200 µM | > 200 µM |  |
| CCN(CC)CC1CCCCN1CC(=O)N1c2ccccc2NC(=O)CC1C (stereo not drawn) | 158 µM | > 200 µM |  |
| C=C1SC(=Nc2cccc(OC)c2)N(c2nc(Cl)nc(Cl)n2)C12CCCCC2 | > 155 µM | 52.5 µM |  |
| Clc1ccc(Cc2nc3ccccc3s2)c(Cl)c1 | > 33.9 µM | 26.3 µM |  |
| N=C(N)SCCCON | > 200 µM | > 200 µM |  |
| O=S(=O)(O)NCC1OC2OC3C(CNS(=O)(=O)O)OC(OC4C(CNS(=O)(=O)O)OC(OC5C(CNS(=O)(=O)O)OC(OC6C(CNS(=O)(=O)O)OC(OC7C(CNS(=O)(=O)O)OC(OC8C(CNS(=O)(=O)O)OC(OC1C(OS(=O)(=O)O)C2OS(=O)(=O)O)C(OS(=O)(=O)O)C8OS(=O)(=O)O)C(OS(=O)(=O)O)C7OS(=O)(=O)O)C(OS(=O)(=O)O)C6OS(=O)(=O)O)C(OS(=O)(=O)O)C5OS(=O)(=O)O)C(OS(=O)(=O)O)C4OS(=O)(=O)O)C(OS(=O)(=O)O)C3OS(=O)(=O)O (stereo not drawn) | > 50.1 µM | > 50.1 µM |  |
| Cn1c(=O)oc(=O)c2ccccc21 |  |  | inactive |
| N#CC(C#N)=C/C=C/c1ccccc1[N+](=O)[O-] | > 200 µM | 3.47 µM |  |
| COc1cc(O)c2c(c1)O[C@H](C)[C@H](C)C2=O | 100 µM | > 200 µM |  |
| O=c1n(-c2ccccc2)c(=O)n(-c2ccccc2)c(=O)n1-c1ccccc1 | > 200 µM | > 200 µM |  |
| CNc1ncc2nc(C(=O)O)c(=O)n(C)c2n1 | > 200 µM | > 200 µM |  |
| O=C(CC(=O)c1ccccc1)C(=O)NC12CC3CC(CC(C3)C1)C2 | > 11.5 µM | > 11.5 µM |  |
| CC(C)(C)C1CCC2c3c([nH]c4ccccc34)C3C(=O)N(c4cccc(Cl)c4)C(=O)C3C2C1 (stereo not drawn) | > 200 µM | 11 µM |  |
| O=c1c(O)c(-c2ccc(O)c(O)c2)oc2cc(O)cc(O)c12.[Zr] | > 200 µM | > 200 µM |  |
| O=S(=O)(O)OC1CCCC1S(=O)(=O)O (stereo not drawn) | > 200 µM | > 200 µM |  |
| O=C(CCCN1CCC(Nc2ccc(F)cc2)(c2nnnn2C2CCCCC2)CC1)c1ccc(F)cc1 | > 200 µM | 16.6 µM |  |
| COc1ccccc1C1(C)SCc2nc3ccccc3n21 (stereo not drawn) | > 87.1 µM | 79.4 µM |  |
| CCN(CC)CCN(C(=Nc1ccccc1)N1CCCCC1)c1ccccc1 | > 200 µM | 1.29 µM |  |
| C[PH+](C)C.C[PH+](C)C.[C-]#[O+].[C-]#[O+].[C-]#[O+].[Fe] | > 200 µM | 49 µM |  |

| SMILES | EC50 | IC50 | outcome |
| --- | --- | --- | --- |
| CN=c1ncn(C)c2ncn(C/C=C(\C)CC[C@@]3(C)C(C)CCC4(O)C3CCCC4(C)C)c12 (stereo partly drawn) |  |  | inactive |
| COC(=O)c1cc(C(=CCCc2ccccc2)c2cc(Br)c(OC)c(C(=O)OC)c2)cc(Br)c1OC | > 200 µM | 11.2 µM |  |
| c1ccc([P+](Cc2cccc(C[P+](c3ccccc3)(c3ccccc3)c3ccccc3)c2)(c2ccccc2)c2ccccc2)cc1 | > 200 µM | 85.1 µM |  |
| Cc1ccc2c(=O)c3cccc(CC(=O)O)c3[nH]c2c1C | > 200 µM | 47.9 µM |  |
| COc1ccc2c(O)c(S(=O)(=O)c3ccc(Cl)cc3)c(=O)oc2c1 | > 200 µM | 129 µM |  |
| CC(=O)N(C(C)=O)n1c(-c2ccccc2)n[nH]c1=O | > 200 µM | > 200 µM |  |
| Cc1ccc(C(=O)Nc2ccc(CP(=O)(O)O)cc2CP(=O)(O)O)cc1NC(=O)c1cccc(N)c1 | > 200 µM | > 200 µM |  |
| CNC(=O)CCNC(=O)CCC(=O)OC | > 200 µM | > 200 µM |  |
| CN(c1ccc(Cl)cc1)S(=O)(=O)c1ccc([N+](=O)[O-])cc1 | > 200 µM | > 200 µM |  |
| O=c1cc(SCc2ccccc2Cl)[nH]c(=O)[nH]1 | > 115 µM | > 115 µM |  |
| COc1ccc(-c2[nH]c(-c3ccc(OC)cc3)c(-c3ccccn3)c2-c2ccccn2)cc1 | > 200 µM | 24.5 µM |  |
| COc1cccc2c1C(=O)c1c(O)c3c(c(O)c1C2=O)C[C@@](O)(C(C)=O)C[C@@H]3OC1CC(N(C)C)C(O)C(C)O1 (stereo partly drawn) |  |  | inactive |
| COC1CCC(=O)N1CCn1c(SCc2ccccc2)nc2ccccc21 (stereo not drawn) | > 93.3 µM | > 93.3 µM |  |
| COC(=O)C(c1ccc(OC)cc1)N1C(=O)[C@@H](NC(=O)c2ccccc2)[C@H]1[C@@H](C)O (stereo partly drawn) | > 200 µM | > 200 µM |  |
| Ic1cc2c(cc1C1SCCCS1)OCO2 | > 251 µM | > 251 µM |  |
| CC(C)CC(NC(=O)C(CCC(=O)O)NC(=O)CNC(=O)CNC(=O)C(CO)NC(=O)C(CC(C)C)NC(=O)C(NC(=O)C(CO)NC(=O)C(C)NC(=O)C(CCCNC(=N)N)NC(=O)C(C)NC(=O)CN)C(C)C)C(=O)NC(CC(=O)O)C(=O)NC(CCCNC(=N)N)C(=O)NC(Cc1c[nH]c2ccccc12)C(=O)NC(Cc1ccc(O)cc1)C(N)=O (stereo not drawn) (H-GARASVLSGGELDRWY-NH2; configuration not given here) | > 145 µM | > 145 µM |  |
| Cn1c(=O)cc(N=Nc2ccc(Cl)c(Cl)c2)[nH]c1=O | > 200 µM | 16.2 µM |  |
| COc1ccccc1/C=C(\C#N)c1ccccc1 | > 22.4 µM | 11 µM |  |
| Cc1cn(C2OC(CO[Si](C)(C)C(C)(C)C)/C(=C\C#N)C2O[Si](C)(C)C(C)(C)C)c(=O)[nH]c1=O (stereo not drawn) | > 200 µM | > 200 µM |  |
